Patent US20110124589A1, “INHALED FOSFOMYCIN/TOBRAMYCIN FOR THE TREATMENT OF CHRONIC OBSTRUCTIVE PULMONARY DISEASE” (Gilead Sciences, Inc., priority 2009, published 2011)
Converted amounts (≈) assume the structure as drawn. Where two headings read alike, the source gives them in different places.

What was measured:
S. aureus [1] = assay: MIC of recent clinical isolates, agar dilution (CMI study); assay type: cell-based; conditions: Staphylococcus aureus
M. catarrhalis [2] = conditions: 5 isolates; agar dilution; cited from earlier work
S. aureus [3] = assay: MIC, agar-plate dilution (Method A); conditions: Staphylococcus aureus
Description: (§1) The efficacy of antibiotics and antibiotic combinations against Gram-positive and Gram-negative bacteria representative of species that cause respiratory infections were evaluated in MIC assays. […] H. influenzae, M. catarrhalis, and S. aureus, were isolated from respiratory tract infections. E. coli ATCC 25922, P. aeruginosa ATCC 27853, and S. aureus ATCC 29213 were used as quality control stains.
(§2) Method A: The MICs of fosfomycin alone, tobramycin alone, or combinations of fosfomycin plus tobramycin were determined by the agar-plate dilution method according to NCCLS guidelines (NCCLS, 2003). Bacterial strains were streaked onto Trypic Soy Agar plates (PML Microbiologicals, Wilsonville, Oreg.) containing 5% defibrinated sheep blood (hereafter referred to as blood agar plates) and incubated overnight at 35° C. Two to three bacterial colonies from the overnight cultures were inoculated into 3 mL of sterile normal saline, vortexed briefly, and adjusted to a 0.5 McFarland standard (NCCLS, 2003). The bacterial suspension was diluted 1:40 in sterile normal saline and served as the inoculum. Mueller-Hinton agar plates (hereafter referred to as MHA) were prepared by combining 16 g of agarose (Becton-Dickinson, Sparks, Md.), 22 g of Mueller-Hinton broth powder (Becton-Dickinson, Sparks, Md.), and adjusted to 1 L with distilled water. The agar was sterilized by autoclaving, cooled to 55° C., and supplemented with 25 μg/mL of glucose-6-phosphate (Sigma-Aldrich, St. Louis, Mo.). Twenty-five mL of cooled agar was aliquoted into 50 mL conical tubes and supplemented with appropriate concentrations of antibiotic to achieve concentrations ranging from 0.06 μg/mL to 512 μg/mL. After gently mixing the agar and antibiotic, the suspension was poured into sterile 100 mm petri dishes and allowed to solidify at room temperature. The antibiotic agar plates were inoculated with approximately 2×10^4 CFU/spot with a 48-point inoculator (Sigma-Aldrich, St. Louis, Mo.). The MIC was defined as the lowest concentration of antibiotic (s) that prevented visible growth after incubation for 18-20 hours at 35° C.

P. aeruginosa C177 = assay: Rat bacterial pneumonia model
Description: Animals were handled according to the guidelines for the Care and use of Laboratory Animals. […] All animal protocols were approved by an IRB/Ethics Committee. Male Sprague-Dawley rats (180-200 g) were obtained from Charles River Laboratories (Hollister, Calif., USA) and acclimatized for 5 days prior to use. Animals were housed individually in ventilated cages, fed Purina Lab Diet ad libitum and allowed free access to water.
Antibiotic efficacy was determined using a rat bacterial pneumonia model. […] Rats were anaesthetized with isoflurane, and ˜10^3 cfu of P. aeruginosa C177 in 2% agar solution were instilled into the lungs with an oral gavage needle. The inoculum was deposited at the first bifurcation and distributed throughout the lungs by inspiration. Animals were allowed to recover for 18 hr post-infection. Each experiment consisted of pre-treatment (n=5-7), saline control with isoflurane, and 100 μL of antibiotic solution or saline was instilled in the trachea using a Microsprayer™ (Penn-Century In., Philadelphia, Pa., USA). Antibiotics were administered intratracheally twice daily for 3 days.
Animals were euthanized by intraperitoneal administration of sodium pentobarbital. The pre-treatment control group was harvested 18 hr post-infection, and the saline and treatment groups 18 hr after the last antibiotic exposure. Lungs were removed aseptically, homogenized in sterile normal saline and viable bacteria determined by the colony count method. Statistical differences between the saline control group and treatment groups were evaluated by the Mann-Whitney Rank Sum Test using GraphPad Prism® software package version 3.03 (GraphPad Software, Inc., San Diego, Calif., USA).

S. pyogenes = conditions: 5 isolates; broth microdilution; cited from earlier work
P. aeruginosa ATCC 27853 [4] = assay: Time-kill experiments in 2% porcine gastric mucin; assay type: cell-based; conditions: 2% mucin
Description: These studies were previously reported in PCT Publication no. WO2005/110022 to Gilead Sciences, Inc. (formerly Carus Pharma). Two to three bacterial colonies were inoculated into 10 mL CAMHB and incubated at 35° C. in a shaking water bath (250 rpm) for 18-24 hours. A 1:40 dilution of the overnight culture was made in 10 mL of fresh CAMHB and incubated at 35° C. in a shaking water bath (250 rpm) for 1-2 hours. […] Ten milliliter aliquots were then pipeted into 50 mL conical tubes. […] The killing activity of fosfomycin plus tobramycin was also compared to the killing activity of the individual components. […] A no drug control was conducted in each experiment. […] Bacterial killing was determined at 0, 1, 2, 4, 6, and 24 hours by making 10-fold serial dilutions of the cultures in sterile normal saline, and spreading 100 μl aliquots on blood agar plates. […] The limit of detection for the colony counting method was 1 Log10. Time-kill curves were constructed by plotting the Log10 number of CFU/mL culture versus time.

H. influenzae [5] = conditions: 16 isolates; agar dilution; cited from earlier work
S. pneumoniae [6] = assay: MIC of recent clinical isolates, agar dilution (CMI study); assay type: cell-based
H. influenzae [7] = assay: MIC, agar-plate dilution (Method A)
Description: as §1, §2

[8] = Sputum drug concentrations following aerosolization of FTI; assay type: in vivo, human; conditions: for Cmax: human, sputum, inhaled
Description: In order to assess the amount of drug delivered to the respiratory track, drug concentration was measured in expectorated sputum for patients with CF or bronchiectasis. The fosfomycin and tobramycin range for patient type and dose was 1751-2974 μg/g and 326-881 μg/g, respectively.

H. influenzae [9] = conditions: cited from earlier work
Klebsiella spp. [10] = conditions: 22 isolates; broth microdilution; cited from earlier work
P. aeuriginosa = assay: Dose-response time-kill studies in 2% mucin; assay type: cell-based
P. aeruginosa [11] = conditions: agar dilution, cited from earlier work
P. aeruginosa [12] = assay: MIC, agar-plate dilution with 2% porcine gastric mucin (Method B); assay type: cell-based; conditions: Pseudomonas aeruginosa; 100 P. aeruginosa strains from cystic fibrosis lung sputum; 2% mucin
Description: Bacterial strains were streaked onto […] […] Louis, Mo.). […] Louis, Mo.). […] Methodologies were identical to that described in Method A above, with the exception that 2% (weight/volume) porcine gastric mucin (Sigma Chemical Co., St. Louis, Mo.) was added to the MHA prior to autoclaving.

M. catarrhalis [13] = assay: MIC of recent clinical isolates, agar dilution (CMI study); assay type: cell-based; conditions: Moraxella catarrhalis; 103 isolates
S. pneumoniae [14] = assay: MIC, agar-plate dilution (Method A); conditions: Streptococcus pneumoniae
Description: as §1, §2

E. coli = conditions: cited from earlier work
Klebsiella spp. [15] = conditions: cited from earlier work
P. aeruginosa ATCC 27853 [16] = assay: MBC/MIC, broth microdilution
Description: The MBCs of fosfomycin and tobramycin alone for P. aeruginosa ATCC 27853, E. coli ATCC 25922, and S. aureus ATCC 29213 were determined by the broth microdilution method according to NCCLS standards (NCCLS, 1999). […] Bacterial strains were streaked onto blood agar plates and incubated at 35° C. for 18-24 hours. Two to three bacterial colonies from the overnight cultures were inoculated into 3 mL of sterile normal saline, vortexed briefly, and adjusted to a 0.5 McFarland standard (NCCLS, 2003). Fifty microliters of bacterial inoculum (approximately 2×10^5 CFU/mL) was pipeted into individual wells of 96-well plates containing 50 μl of CAMHB (Remel, Lenexa, Kanas) supplemented with 2-fold dilutions of antibiotics ranging in concentration from 0.125 μg/mL to 128 μg/mL. […] The contents of wells showing no growth (MIC and above) were mixed with a pipetor and duplicate 10 μl samples spread onto blood agar plates. Culture plates were incubated at 35° C. for 18-24 hours and the number of bacterial colonies on each plate enumerated manually. Rejection values were determined by NCCLS methods which considers the final inoculum size, single or double sampling, pipetting error, and the Poisson distributuion of sample responses (NCCLS, 1999). […] The MBC/MIC ratios were calculated by dividing the MBC by the MIC.

S. aureus [17] = conditions: cited from earlier work
B. cepacia complex = conditions: 20 isolates; agar dilution; cited from earlier work
S. pneumoniae [18] = conditions: 8 isolates; agar dilution; cited from earlier work
H. influenzae [19] = assay: MIC of recent clinical isolates, agar dilution (CMI study); assay type: cell-based; conditions: Haemophilus influenzae

NC[C@H]1O[C@H](O[C@H]2[C@H](O)[C@@H](O[C@H]3O[C@H](CO)[C@@H](O)[C@H](N)[C@H]3O)[C@H](N)C[C@@H]2N)[C@H](N)C[C@@H]1O [Tobramycin]
MIC50 (S. aureus [1]; MRSA, 103 isolates): 0.5 µg/mL | MIC90 (S. aureus [1]; MRSA, 103 isolates): > 32 µg/mL | MIC50 (S. aureus [1]; MSSA, 104 isolates): 0.25 µg/mL | MIC90 (S. aureus [1]; MSSA, 104 isolates): 0.5 µg/mL | MIC range (M. catarrhalis [2]): 0.5 to 1 µg/mL | MIC (S. aureus [3]): 64 µg/mL (≈ 137 µM) | MIC (S. aureus [3]; MRSA): 0.25 µg/mL (≈ 0.535 µM) | MIC (S. aureus [3]; MSSA): 0.25 µg/mL (≈ 0.535 µM) | MIC (S. aureus [3]; strain COR-059): 128 µg/mL (≈ 274 µM) | reduction in lung burden (P. aeruginosa C177; 1 mg/kg of tobramycin alone (FIG. 11)): ~500 fold | bacterial killing in rat lung (P. aeruginosa C177; 2.5 mg/kg intratracheally twice daily for 3 days (FIG. 11)): 3 Log10 | eradication of P. aeruginosa infection (P. aeruginosa C177; doses higher than 3 mg/kg intratracheally): complete eradication | bacterial killing in rat lung (P. aeruginosa C177; doses=0.5 mg/kg intratracheally): did not result in bacterial killing | MIC range (S. pyogenes): 16 to 64 µg/mL | activity at 24 hours in time-kill curves (FIG. 2) (P. aeruginosa ATCC 27853 [4]; 12.8 μg/mL fosfomycin, 3.2 μg/mL tobramycin, or both, 24 hours): re-growth was observed | killing activity in time-kill curves (FIG. 2) (P. aeruginosa ATCC 27853 [4]; 4×MIC: 12.8 μg/mL fosfomycin + 3.2 μg/mL tobramycin vs the components alone): bacteriostatic activity | killing activity in time-kill curves (FIG. 1) (P. aeruginosa ATCC 27853 [4]; 9:1 combination (fosfomycin 14.4 μg/mL + tobramycin 1.6 μg/mL) vs the components alone): bacteriostatic killing | MIC50 (H. influenzae [5]): 1 µg/mL (≈ 2.14 µM) | MIC90 (H. influenzae [5]): 1 µg/mL (≈ 2.14 µM) | MIC range (H. influenzae [5]): 0.5 to 1 µg/mL | MIC50 (S. pneumoniae [6]; Penicillin resistant, 32 isolates): 32 µg/mL | MIC90 (S. pneumoniae [6]; Streptococcus pneumoniae, Penicillin resistant, 32 isolates): > 32 µg/mL | MIC90 (S. pneumoniae [6]; Streptococcus pneumoniae, penicillin suscept., 39 isolates): > 32 µg/mL | MIC50 (S. pneumoniae [6]; Streptococcus pneumoniae, penicillin suscept., 39 isolates, read-out: MIC50): 32 µg/mL | MIC (H. influenzae [7]; Haemophilus influenzae): 0.5 µg/mL (≈ 1.07 µM) | MIC (H. influenzae [7]; strain COR-049): 0.5 µg/mL (≈ 1.07 µM) | sputum concentration range for patient type and dose ([8]; both FTI doses, CF and bronchiectasis patients): 326 to 881 µg/g | Cmax ([8]; 20 mg, patients with Bronchiectasis, aerosolized 80:20 mg FTI): 326000 ng/g | Cmax ([8]; 20 mg, patients with Cystic Fibrosis, aerosolized 80:20 mg FTI): 580000 ng/g | Cmax ([8]; 40 mg, patients with Bronchiectasis, aerosolized 160:40 mg FTI): 587000 ng/g | Cmax ([8]; 40 mg, patients with Cystic Fibrosis, aerosolized 160:40 mg FTI): 881000 ng/g | Range of MBC/MIC (H. influenzae [9]; 6 strains): 1-2 | strains against which bactericidal (H. influenzae [9]): 100% | MIC50 (Klebsiella spp. [10]): 0.13 µg/mL (≈ 0.278 µM) | MIC90 (Klebsiella spp. [10]): 16 µg/mL (≈ 34.2 µM) | bactericidal or bacteriostatic (P. aeuriginosa; 2% mucin (FIGS. 4-6)): rapidly bactericidal | time-dependent or concentration-dependent killing (P. aeuriginosa; 2% mucin (FIGS. 4-6)): concentration-dependent killing | re-growth within 24 hours (P. aeuriginosa; 2% mucin (FIGS. 5-6)): re-growth occurred within 24 hours | MIC50 (P. aeruginosa [11]; CF, 100 isolates): 2 µg/mL (≈ 4.28 µM) | MIC90 (P. aeruginosa [11]; CF, 100 isolates): 16 µg/mL (≈ 34.2 µM) | MIC50 (P. aeruginosa [11]; non-CF, 60 isolates): 1 µg/mL (≈ 2.14 µM) | MIC90 (P. aeruginosa [11]; non-CF, 60 isolates): 128 µg/mL (≈ 274 µM) | MIC50 (P. aeruginosa [12]): 16 µg/mL (≈ 34.2 µM) | MIC90 (P. aeruginosa [12]): 64 µg/mL (≈ 137 µM) | MIC50 (M. catarrhalis [13]): 0.12 µg/mL | MIC90 (M. catarrhalis [13]): 0.25 µg/mL | MIC (S. pneumoniae [14]; strain COR-061): 64 µg/mL (≈ 137 µM) | MIC (S. pneumoniae [14]; strain COR-068): 16 µg/mL (≈ 34.2 µM) | Range of MBC/MIC (E. coli; 10 strains): 1-4 | strains against which bactericidal (E. coli): 100% | Range of MBC/MIC (Klebsiella spp. [15]; 5 strains): 1-4 | strains against which bactericidal (Klebsiella spp. [15]): 100% | MBC/MIC (P. aeruginosa ATCC 27853 [16]): 1 | Range of MBC/MIC (S. aureus [17]; 10 strains): 1-2 | strains against which bactericidal (S. aureus [17]): 100% | MIC50 (B. cepacia complex): 64 µg/mL (≈ 137 µM) | MIC90 (B. cepacia complex): 512 µg/mL (≈ 1100 µM) | MIC range (S. pneumoniae [18]): 16 to 64 µg/mL | MIC50 (H. influenzae [19]; β-lactamase neg, 62 isolates): 4 µg/mL | MIC90 (H. influenzae [19]; β-lactamase neg, 62 isolates): 8 µg/mL | MIC50 (H. influenzae [19]; β-lactamase pos, 39 isolates): 4 µg/mL | MIC90 (H. influenzae [19]; β-lactamase pos, 39 isolates): 4 µg/mL
